# Assay: recombinant barcode read abundance after kanamycin selection (control-corrected) (log10(CPM+1)); higher = more efficient recombination; sequences stand for … in AGTGCAGAGAAAATCGGCCAGTTTTCTCTGCCTGCAGTCCGCATGCCGT…AGATTTATGCAGCGGACTGCCTTTCTCCCAAAGTGATAAACCGGACAGTATCATGGACCGGTTTTCCCGGTAATCCGTATTTGCAAGGTTGGTTTCACT; site = the 11-nt target
# Outline: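 Targets and IS621 bridge RNA target-binding loops were paired in oligos, each with a promoter, a barcode and the J23119-driven first 104 bridge RNA bases. A vector carrying the remaining 73 bp and a T7-inducible recombinase received these by Gibson cloning, and the pool was co-electroporated into E. coli with a donor plasmid. Duplicate plates contained chloramphenicol/ampicillin LB agar (control) or chloramphenicol/ampicillin/kanamycin with 0.1 mM IPTG. Recombination efficiency comes from averaged, control-corrected counts per million of recombinant-junction barcodes, reported as log10(CPM+1).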
# 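Note: IS621 recombinase and bridge RNA in Escherichia coli cells.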
row,Sequence,recombinant barcode read abundance (log10)
1,GTCCTACCTTGGGTTCTAACCTGTTGCAA (site GTCCTACCTTT),1.45
2,GTCGAGCCTTGGGTTCTAACCTGTTGCCT (site GTCGAGCCTAG),2.12
3,GTCGAGCCTTGGGTTCTAACCTGTTGCCT (site GTTCAGCCTAG),0.157
4,GTCGAGTCTTGGGTTCTAACCTGTTGCCT (site GTCGACACTAG),0.186
5,GTCGAGTCTTGGGTTCTAACCTGTTGCCT (site GTCGAGTCTAG),1.61
6,GTCGCTACTTGGGTTCTAACCTGTTGCCG (site GTCACTACTCG),0
7,GTCGCTACTTGGGTTCTAACCTGTTGCCG (site GTCCCTACTCG),0.0655
8,GTCGCTACTTGGGTTCTAACCTGTTGCCG (site GTCGCTACTCG),0.95
9,GTCGCTACTTGGGTTCTAACCTGTTGCCG (site GTCTCTACTCG),1.35
10,GTCGCTACTTGGGTTCTAACCTGTTGCGG (site GTCGCTACTCC),0.785
11,GTCGCTACTTGGGTTCTAACCTGTTGCGG (site GTCTCTACTCC),0.667
12,GTCGGTCCTTGGGTTCTAACCTGTTGCAC (site GTCGGTCCTGT),2.49
13,GTCGGTCCTTGGGTTCTAACCTGTTGCAC (site TGAAACTCTCC),0.0122
14,GTCGTACCTTGGGTTCTAACCTGTTGCCT (site GTCATACCTAG),0.348
15,GTCGTACCTTGGGTTCTAACCTGTTGCCT (site GTCCTACCTAG),0.0361
16,GTCGTACCTTGGGTTCTAACCTGTTGCCT (site GTCGTACCTAG),0.704
17,GTCGTACCTTGGGTTCTAACCTGTTGCCT (site GTCTTACCTAG),0.221
18,GTCGTAGCTTGGGTTCTAACCTGTTGCTA (site GTCGAACCTTA),0.139
19,GTCGTAGCTTGGGTTCTAACCTGTTGCTA (site GTCGTAGCTTA),0.353
20,GTCGTCGCTTGGGTTCTAACCTGTTGCCT (site GTCGTCACTAG),0.136
21,GTCGTCGCTTGGGTTCTAACCTGTTGCCT (site GTCGTCCCTAG),0.0726
22,GTCGTCGCTTGGGTTCTAACCTGTTGCCT (site GTCGTCGCTAG),0.376
23,GTCGTCGCTTGGGTTCTAACCTGTTGCCT (site GTCGTCTCTAG),0.0427
24,GTCTAAGCTTGGGTTCTAACCTGTTGCCG (site GTCTAAGCTCG),0.59
25,GTCTAAGCTTGGGTTCTAACCTGTTGCCG (site GTCTACGCTTG),0.0178
26,GTCTAAGCTTGGGTTCTAACCTGTTGCTT (site GTCTAAGCTAA),0.0172

row,Sequence,recombinant barcode read abundance (log10)
1,GTCTAAGCTTGGGTTCTAACCTGTTGCTT (site GTCTATGCTAC),0.295
2,GTCTAATCTTGGGTTCTAACCTGTTGCAT (site ACAGGTCCTCG),0.0725
3,GTCTAATCTTGGGTTCTAACCTGTTGCAT (site GTCTAATCTAT),1.02
4,GTCTCGTCTTGGGTTCTAACCTGTTGCTT (site GTCTCGTCTAA),0.246
5,GTCTCGTCTTGGGTTCTAACCTGTTGCTT (site GTCTCTTCTTA),0.0559
6,GTCTGAGCTTGGGTTCTAACCTGTTGCCT (site GTCTAAGCTAG),0.241
7,GTCTGAGCTTGGGTTCTAACCTGTTGCCT (site GTCTGAGCTAG),0.355
8,GTCTTATCTTGGGTTCTAACCTGTTGCCT (site GTCTAATCTAG),0.0535
9,GTCTTATCTTGGGTTCTAACCTGTTGCCT (site GTCTCATCTAG),0.0374
10,GTCTTATCTTGGGTTCTAACCTGTTGCCT (site GTCTGATCTAG),0.24
11,GTCTTATCTTGGGTTCTAACCTGTTGCCT (site GTCTTATCTAG),1.14
12,GTCTTGACTTGGGTTCTAACCTGTTGCCA (site GTCTTAACTCG),0.0812
13,GTCTTGACTTGGGTTCTAACCTGTTGCCA (site GTCTTGACTTG),0.102
14,GTGAAAGCTTGGGTTCTAACCTGTTGCCA (site GTGAAAGCTTG),0.73
15,GTGAAAGCTTGGGTTCTAACCTGTTGCCA (site GTGGAAGCTTG),0.0113
16,GTGAACCCTTGGGTTCTAACCTGTTGCAA (site GTGAACCCTTT),1.66
17,GTGAACCCTTGGGTTCTAACCTGTTGCAA (site TCCGGAGCTCG),0.103
18,GTGAACCCTTGGGTTCTAACCTGTTGCAG (site GTGAACCCTCT),2.11
19,GTGAACCCTTGGGTTCTAACCTGTTGCAG (site GTGATCCCTCT),0.0104
20,GTGAAGACTTGGGTTCTAACCTGTTGCTT (site AACGTACCTCT),0.125
21,GTGAAGACTTGGGTTCTAACCTGTTGCTT (site GTGAAGACTAA),1.41
22,GTGACCTCTTGGGTTCTAACCTGTTGCCT (site GCTACCTCTAG),0.0896
23,GTGACCTCTTGGGTTCTAACCTGTTGCCT (site GTGACCTCTAG),1.49
24,GTGAGAACTTGGGTTCTAACCTGTTGCCA (site CGTGACCCTCC),0.0895
25,GTGAGAACTTGGGTTCTAACCTGTTGCCA (site GTGAGAACTTG),0.588
26,GTGAGCACTTGGGTTCTAACCTGTTGCGG (site GTGAGAGCTCC),0.0559

row,Sequence,recombinant barcode read abundance (log10)
1,GTGAGCACTTGGGTTCTAACCTGTTGCGG (site GTGAGCACTCC),1.84
2,GTGAGGACTTGGGTTCTAACCTGTTGCCA (site GTAACGACTTG),0.252
3,GTGAGGACTTGGGTTCTAACCTGTTGCCA (site GTGAGGACTTG),1.53
4,GTGAGGTCTTGGGTTCTAACCTGTTGCTT (site GTGAGGTCTAA),2.01
5,GTGAGGTCTTGGGTTCTAACCTGTTGCTT (site GTGAGGTCTAC),0.229
6,GTGAGGTCTTGGGTTCTAACCTGTTGCTT (site GTGAGGTCTAG),1.46
7,GTGAGGTCTTGGGTTCTAACCTGTTGCTT (site GTGAGGTCTAT),1.38
8,GTGAGTGCTTGGGTTCTAACCTGTTGCCA (site ATAAGTGCTTG),0.475
9,GTGAGTGCTTGGGTTCTAACCTGTTGCCA (site GTGAGTGCTTG),0.723
10,GTGATCCCTTGGGTTCTAACCTGTTGCAG (site GTGAACCCTCT),0.184
11,GTGATCCCTTGGGTTCTAACCTGTTGCAG (site GTGATCCCTCT),1.79
12,GTGCAACCTTGGGTTCTAACCTGTTGCCT (site AGTGTCACTCC),0.056
13,GTGCAACCTTGGGTTCTAACCTGTTGCCT (site GTGCAACCTAG),1.34
14,GTGCACACTTGGGTTCTAACCTGTTGCCA (site GTGCAAACTAG),0.0839
15,GTGCACACTTGGGTTCTAACCTGTTGCCA (site GTGCACACTTG),0.736
16,GTGCCCGCTTGGGTTCTAACCTGTTGCAG (site AAATGACCTAC),0.0527
17,GTGCCCGCTTGGGTTCTAACCTGTTGCAG (site GTGCCCGCTCT),0.961
18,GTGCCCTCTTGGGTTCTAACCTGTTGCCG (site GTGCCCGCTCC),0.0127
19,GTGCCCTCTTGGGTTCTAACCTGTTGCCG (site GTGCCCTCTCG),1.66
20,GTGCCTCCTTGGGTTCTAACCTGTTGCTT (site GTGCCTCCTAA),1.01
21,GTGCCTCCTTGGGTTCTAACCTGTTGCTT (site GTGTATCCTAA),0.0505
22,GTGCGCTCTTGGGTTCTAACCTGTTGCCG (site GTGAGCCCTCG),0.076
23,GTGCGCTCTTGGGTTCTAACCTGTTGCCG (site GTGCGCTCTCG),1.49
24,GTGCGGACTTGGGTTCTAACCTGTTGCGT (site GTGAGGACTAC),0.676
25,GTGCGGACTTGGGTTCTAACCTGTTGCGT (site GTGCGGACTAC),2.06

# Reference: the supplement of paper PMC11208160
